From ChEMBL document CHEMBL1150977, “A quantitative analysis of kinase inhibitor selectivity” (Nat Biotechnol, 2008)

Assays:
[1] = biological target: Cyclin-dependent kinase 17 (Homo sapiens, UniProt Q00537)
[2] = biological target: Serine/threonine-protein kinase 32B (Homo sapiens, UniProt Q9NY57)
[3] = biological target: T1, Inhibitor of nuclear factor kappa-B kinase subunit epsilon (Homo sapiens, UniProt Q14164)
T1 sequence (Q14164 whole entry): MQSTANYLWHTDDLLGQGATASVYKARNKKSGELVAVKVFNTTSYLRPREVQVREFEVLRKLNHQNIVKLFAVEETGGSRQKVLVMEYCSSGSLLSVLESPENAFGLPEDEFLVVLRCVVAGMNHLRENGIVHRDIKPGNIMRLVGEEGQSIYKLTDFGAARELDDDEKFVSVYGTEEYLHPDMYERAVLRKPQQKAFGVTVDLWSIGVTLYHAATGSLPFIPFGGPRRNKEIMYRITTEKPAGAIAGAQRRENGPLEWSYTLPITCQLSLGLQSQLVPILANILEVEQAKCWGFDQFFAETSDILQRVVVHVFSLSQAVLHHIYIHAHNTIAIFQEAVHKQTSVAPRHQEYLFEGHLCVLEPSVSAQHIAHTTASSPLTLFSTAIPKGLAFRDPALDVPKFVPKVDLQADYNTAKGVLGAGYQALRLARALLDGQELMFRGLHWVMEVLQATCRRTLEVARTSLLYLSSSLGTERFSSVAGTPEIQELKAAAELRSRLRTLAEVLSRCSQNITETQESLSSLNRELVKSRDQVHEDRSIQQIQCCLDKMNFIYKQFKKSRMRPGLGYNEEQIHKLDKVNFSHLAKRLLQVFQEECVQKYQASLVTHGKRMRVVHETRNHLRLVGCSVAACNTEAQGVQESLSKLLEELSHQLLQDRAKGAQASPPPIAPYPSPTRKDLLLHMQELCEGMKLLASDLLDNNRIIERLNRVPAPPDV

[4] = biological target: Casein kinase II subunit alpha' (Homo sapiens, UniProt P19784)
[5] = biological target: Tyrosine-protein kinase Fgr (Homo sapiens, UniProt P09769)
Tyrosine-protein kinase Fgr, sequence (P09769 whole entry): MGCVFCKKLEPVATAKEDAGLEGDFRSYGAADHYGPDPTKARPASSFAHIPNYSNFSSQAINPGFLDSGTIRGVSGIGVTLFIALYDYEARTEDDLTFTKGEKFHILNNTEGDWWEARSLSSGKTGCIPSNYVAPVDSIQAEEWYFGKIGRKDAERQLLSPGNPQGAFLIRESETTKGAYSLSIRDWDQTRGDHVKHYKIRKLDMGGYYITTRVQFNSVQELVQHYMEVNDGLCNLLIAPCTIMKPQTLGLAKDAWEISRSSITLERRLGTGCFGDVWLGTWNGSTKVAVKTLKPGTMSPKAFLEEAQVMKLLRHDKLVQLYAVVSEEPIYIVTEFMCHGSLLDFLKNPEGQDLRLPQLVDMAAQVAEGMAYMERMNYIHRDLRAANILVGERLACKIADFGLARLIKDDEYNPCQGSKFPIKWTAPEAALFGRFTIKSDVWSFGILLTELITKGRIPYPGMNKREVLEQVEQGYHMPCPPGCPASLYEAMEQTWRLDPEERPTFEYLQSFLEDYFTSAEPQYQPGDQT

[6] = biological target: Insulin receptor-related protein (Homo sapiens, UniProt P14616)
[7] = biological target: Tyrosine-protein kinase JAK1 (Homo sapiens, UniProt P23458)
[8] = biological target: Calcium/calmodulin-dependent protein kinase type II subunit alpha (Homo sapiens, UniProt Q9UQM7)
[9] = biological target: Vascular endothelial growth factor receptor 3 (Homo sapiens, UniProt P35916)
Vascular endothelial growth factor receptor 3, sequence (P35916 whole entry): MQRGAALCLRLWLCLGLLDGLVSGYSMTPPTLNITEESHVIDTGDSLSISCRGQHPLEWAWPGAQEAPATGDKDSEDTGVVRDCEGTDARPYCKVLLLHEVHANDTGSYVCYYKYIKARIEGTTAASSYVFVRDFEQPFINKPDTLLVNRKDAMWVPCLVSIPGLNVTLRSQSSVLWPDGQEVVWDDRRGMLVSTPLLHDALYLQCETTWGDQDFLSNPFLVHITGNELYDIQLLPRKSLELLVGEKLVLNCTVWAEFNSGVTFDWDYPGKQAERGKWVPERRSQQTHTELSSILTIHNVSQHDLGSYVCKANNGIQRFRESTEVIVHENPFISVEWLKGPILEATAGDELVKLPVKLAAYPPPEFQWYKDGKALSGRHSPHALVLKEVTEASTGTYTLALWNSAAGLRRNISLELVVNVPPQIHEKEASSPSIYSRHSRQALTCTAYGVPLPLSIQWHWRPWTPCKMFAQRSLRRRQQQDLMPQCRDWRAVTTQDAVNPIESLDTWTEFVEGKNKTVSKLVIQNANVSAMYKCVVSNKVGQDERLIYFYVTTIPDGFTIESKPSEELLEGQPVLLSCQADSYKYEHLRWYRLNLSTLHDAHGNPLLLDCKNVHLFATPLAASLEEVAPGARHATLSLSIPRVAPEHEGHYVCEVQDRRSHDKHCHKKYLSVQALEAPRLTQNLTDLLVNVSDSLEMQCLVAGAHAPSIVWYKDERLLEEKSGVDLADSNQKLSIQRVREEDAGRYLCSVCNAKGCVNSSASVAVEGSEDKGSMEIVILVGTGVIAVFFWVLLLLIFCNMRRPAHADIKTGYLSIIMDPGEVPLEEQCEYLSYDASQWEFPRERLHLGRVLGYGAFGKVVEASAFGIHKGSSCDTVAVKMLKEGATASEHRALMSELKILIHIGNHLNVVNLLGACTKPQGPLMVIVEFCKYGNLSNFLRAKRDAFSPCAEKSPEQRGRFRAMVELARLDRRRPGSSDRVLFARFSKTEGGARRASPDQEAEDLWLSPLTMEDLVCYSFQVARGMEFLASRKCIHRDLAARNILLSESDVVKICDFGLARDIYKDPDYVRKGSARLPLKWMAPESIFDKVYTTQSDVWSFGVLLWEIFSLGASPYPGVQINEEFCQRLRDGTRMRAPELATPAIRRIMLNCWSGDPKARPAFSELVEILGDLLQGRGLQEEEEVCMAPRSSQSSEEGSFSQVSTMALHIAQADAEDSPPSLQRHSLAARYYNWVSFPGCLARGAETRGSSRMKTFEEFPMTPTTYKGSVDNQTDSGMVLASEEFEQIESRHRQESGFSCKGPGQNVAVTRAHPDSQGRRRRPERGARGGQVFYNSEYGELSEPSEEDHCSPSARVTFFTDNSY

[10] = biological target: Dual specificity protein kinase CLK2 (Homo sapiens, UniProt P49760)
[11] = biological target: Proto-oncogene tyrosine-protein kinase receptor Ret (Homo sapiens, UniProt P07949)
Proto-oncogene tyrosine-protein kinase receptor Ret, sequence (P07949 whole entry): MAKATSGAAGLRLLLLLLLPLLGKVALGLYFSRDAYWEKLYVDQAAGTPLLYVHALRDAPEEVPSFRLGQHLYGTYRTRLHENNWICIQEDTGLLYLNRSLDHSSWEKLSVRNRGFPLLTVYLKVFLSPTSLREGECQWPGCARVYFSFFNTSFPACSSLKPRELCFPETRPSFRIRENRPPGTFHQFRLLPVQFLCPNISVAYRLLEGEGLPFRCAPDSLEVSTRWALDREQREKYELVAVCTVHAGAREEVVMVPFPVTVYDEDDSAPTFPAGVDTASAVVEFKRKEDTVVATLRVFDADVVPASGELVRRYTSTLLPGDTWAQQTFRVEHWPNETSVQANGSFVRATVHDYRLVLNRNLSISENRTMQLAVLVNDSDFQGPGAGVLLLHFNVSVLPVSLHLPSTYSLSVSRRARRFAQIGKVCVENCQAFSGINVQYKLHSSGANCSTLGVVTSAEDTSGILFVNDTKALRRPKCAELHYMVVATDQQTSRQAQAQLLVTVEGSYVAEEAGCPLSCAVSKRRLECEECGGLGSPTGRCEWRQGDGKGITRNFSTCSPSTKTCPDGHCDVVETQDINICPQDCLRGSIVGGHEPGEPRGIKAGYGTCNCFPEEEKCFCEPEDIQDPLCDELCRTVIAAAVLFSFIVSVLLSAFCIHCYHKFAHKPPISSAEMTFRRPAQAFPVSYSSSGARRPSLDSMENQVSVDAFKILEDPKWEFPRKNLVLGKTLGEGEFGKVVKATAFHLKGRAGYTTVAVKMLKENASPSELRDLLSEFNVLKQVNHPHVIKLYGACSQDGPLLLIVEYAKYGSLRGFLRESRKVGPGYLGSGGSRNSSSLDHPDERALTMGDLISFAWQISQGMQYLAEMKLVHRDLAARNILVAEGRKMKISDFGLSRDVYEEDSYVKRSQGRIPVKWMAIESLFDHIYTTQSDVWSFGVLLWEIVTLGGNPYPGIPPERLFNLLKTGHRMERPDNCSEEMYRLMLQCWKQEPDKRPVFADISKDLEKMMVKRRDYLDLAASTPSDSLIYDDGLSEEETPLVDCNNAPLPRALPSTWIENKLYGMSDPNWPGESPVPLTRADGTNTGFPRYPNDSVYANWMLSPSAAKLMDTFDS

[12] = biological target: Cyclin-dependent kinase 2 (Homo sapiens, UniProt P24941)
Ephrin type-B receptor 1 = biological target: T2, Ephrin type-B receptor 1 (Homo sapiens, UniProt P54762)
T2 sequence (P54762 whole entry): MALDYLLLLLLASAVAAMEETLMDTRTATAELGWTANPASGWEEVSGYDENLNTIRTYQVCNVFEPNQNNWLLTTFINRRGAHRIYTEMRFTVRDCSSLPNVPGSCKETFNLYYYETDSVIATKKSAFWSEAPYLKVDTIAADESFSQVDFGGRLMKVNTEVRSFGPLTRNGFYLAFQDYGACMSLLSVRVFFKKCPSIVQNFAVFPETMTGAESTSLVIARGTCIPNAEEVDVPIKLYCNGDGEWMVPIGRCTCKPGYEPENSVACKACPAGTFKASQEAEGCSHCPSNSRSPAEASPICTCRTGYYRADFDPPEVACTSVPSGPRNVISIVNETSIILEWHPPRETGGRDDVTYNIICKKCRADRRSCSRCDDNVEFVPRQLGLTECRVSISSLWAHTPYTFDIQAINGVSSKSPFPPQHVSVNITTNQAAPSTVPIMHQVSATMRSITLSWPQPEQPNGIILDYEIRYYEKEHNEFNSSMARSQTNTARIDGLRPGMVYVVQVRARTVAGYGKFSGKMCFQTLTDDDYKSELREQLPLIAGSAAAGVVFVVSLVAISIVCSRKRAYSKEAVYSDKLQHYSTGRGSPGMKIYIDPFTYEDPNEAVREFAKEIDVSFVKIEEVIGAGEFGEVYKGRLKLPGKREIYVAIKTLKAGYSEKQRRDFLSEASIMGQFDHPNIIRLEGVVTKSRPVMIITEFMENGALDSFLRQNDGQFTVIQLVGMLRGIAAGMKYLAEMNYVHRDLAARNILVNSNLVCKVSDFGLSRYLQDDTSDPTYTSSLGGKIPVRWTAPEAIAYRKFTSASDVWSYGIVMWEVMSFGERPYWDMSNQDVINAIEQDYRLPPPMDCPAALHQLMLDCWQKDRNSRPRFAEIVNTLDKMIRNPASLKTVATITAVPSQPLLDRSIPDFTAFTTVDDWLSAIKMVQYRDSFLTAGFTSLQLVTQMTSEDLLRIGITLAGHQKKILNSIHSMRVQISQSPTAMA

[13] = biological target: AP2-associated protein kinase 1 (Homo sapiens, UniProt Q2M2I8)
AP2-associated protein kinase 1, sequence (Q2M2I8 whole entry): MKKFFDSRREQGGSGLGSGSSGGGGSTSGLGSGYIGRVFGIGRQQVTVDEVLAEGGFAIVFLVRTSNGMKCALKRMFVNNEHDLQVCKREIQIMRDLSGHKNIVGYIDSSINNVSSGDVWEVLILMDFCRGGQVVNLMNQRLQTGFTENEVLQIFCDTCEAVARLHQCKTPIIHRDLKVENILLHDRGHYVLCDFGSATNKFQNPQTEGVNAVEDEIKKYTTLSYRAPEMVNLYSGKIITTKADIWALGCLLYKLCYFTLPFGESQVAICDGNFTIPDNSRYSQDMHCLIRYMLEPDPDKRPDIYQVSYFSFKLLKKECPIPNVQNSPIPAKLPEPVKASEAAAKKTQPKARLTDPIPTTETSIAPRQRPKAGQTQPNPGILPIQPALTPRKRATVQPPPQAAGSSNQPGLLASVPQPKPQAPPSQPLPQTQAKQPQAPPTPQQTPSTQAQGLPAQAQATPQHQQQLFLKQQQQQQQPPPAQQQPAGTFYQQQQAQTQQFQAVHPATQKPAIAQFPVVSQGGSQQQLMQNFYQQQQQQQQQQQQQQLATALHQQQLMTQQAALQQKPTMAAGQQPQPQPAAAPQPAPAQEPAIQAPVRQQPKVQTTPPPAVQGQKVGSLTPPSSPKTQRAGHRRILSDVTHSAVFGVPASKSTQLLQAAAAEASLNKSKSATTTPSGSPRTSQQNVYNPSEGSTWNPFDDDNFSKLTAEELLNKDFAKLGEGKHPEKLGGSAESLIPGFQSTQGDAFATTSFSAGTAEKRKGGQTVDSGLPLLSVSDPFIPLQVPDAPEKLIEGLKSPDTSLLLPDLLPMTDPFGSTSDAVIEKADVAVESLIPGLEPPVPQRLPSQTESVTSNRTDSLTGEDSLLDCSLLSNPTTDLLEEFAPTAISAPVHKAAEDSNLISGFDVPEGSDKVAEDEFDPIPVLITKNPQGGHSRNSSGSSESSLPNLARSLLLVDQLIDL

[14] = biological target: Tyrosine-protein kinase CSK (Homo sapiens, UniProt P41240)
[15] = biological target: Phosphorylase b kinase gamma catalytic chain, skeletal muscle/heart isoform (Homo sapiens, UniProt Q16816)

Serine/threonine-protein kinase 32B, sequence (Q9NY57 whole entry): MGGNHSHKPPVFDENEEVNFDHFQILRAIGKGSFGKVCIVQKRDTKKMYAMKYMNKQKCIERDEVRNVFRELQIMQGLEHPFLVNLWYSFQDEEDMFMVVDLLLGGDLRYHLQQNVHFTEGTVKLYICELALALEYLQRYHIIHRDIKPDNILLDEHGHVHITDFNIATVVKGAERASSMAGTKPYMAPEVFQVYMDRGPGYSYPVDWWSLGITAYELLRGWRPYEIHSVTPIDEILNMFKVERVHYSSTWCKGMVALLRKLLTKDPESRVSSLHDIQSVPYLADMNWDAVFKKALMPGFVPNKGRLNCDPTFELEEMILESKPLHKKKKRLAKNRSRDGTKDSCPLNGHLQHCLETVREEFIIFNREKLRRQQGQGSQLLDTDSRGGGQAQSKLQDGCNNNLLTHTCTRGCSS
Cyclin-dependent kinase 17, sequence (Q00537 whole entry): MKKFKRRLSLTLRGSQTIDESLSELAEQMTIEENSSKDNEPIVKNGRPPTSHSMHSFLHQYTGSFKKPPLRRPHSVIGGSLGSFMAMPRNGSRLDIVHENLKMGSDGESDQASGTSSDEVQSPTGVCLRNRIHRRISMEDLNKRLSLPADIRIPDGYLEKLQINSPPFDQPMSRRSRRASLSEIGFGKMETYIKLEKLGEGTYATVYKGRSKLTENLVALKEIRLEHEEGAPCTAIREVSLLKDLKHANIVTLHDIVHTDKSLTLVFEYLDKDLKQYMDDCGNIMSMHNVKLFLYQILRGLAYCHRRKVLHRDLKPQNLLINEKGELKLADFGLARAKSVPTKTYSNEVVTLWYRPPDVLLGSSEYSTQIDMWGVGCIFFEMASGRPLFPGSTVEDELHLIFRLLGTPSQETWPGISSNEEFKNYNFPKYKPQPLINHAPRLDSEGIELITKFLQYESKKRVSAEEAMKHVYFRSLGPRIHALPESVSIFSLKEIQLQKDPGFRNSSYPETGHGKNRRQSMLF

CCOc1cc2ncc(C#N)c(Nc3ccc(F)c(Cl)c3)c2cc1NC(=O)/C=C/CN(C)C [PELITINIB]
Kd [1]: > 10 µM
Kd [2]: 6 µM
Kd [3]: > 10 µM
Kd [4]: > 10 µM
Kd [5]: 0.95 µM
Kd [6]: > 10 µM
Kd [7]: > 10 µM
Kd [8]: > 10 µM
Kd [9]: > 10 µM
Kd [10]: 1.8 µM
Kd [11]: > 10 µM
Kd [12]: > 10 µM

COCC(=O)NC/C=C/c1ccc2ncnc(Nc3ccc(Oc4ccc(C)nc4)c(C)c3)c2c1 [CP-724714]
Kd [1]: > 10 µM
Kd [2]: > 10 µM
Kd [3]: > 10 µM
Kd [4]: > 10 µM
Kd [5]: > 10 µM
Kd (Ephrin type-B receptor 1): > 10 µM
Kd [6]: > 10 µM
Kd [13]: > 10 µM
Kd [7]: > 10 µM
Kd [14]: > 10 µM
Kd [15]: > 10 µM
Kd [8]: > 10 µM
Kd [9]: > 10 µM
Kd [10]: > 10 µM
Kd [11]: > 10 µM
Kd [12]: > 10 µM

NC(=O)c1ccc(-c2nc(-c3ccc4c(c3)OCO4)c(-c3ccccn3)[nH]2)cc1 [SB-431542]
Kd [1]: > 10 µM
Kd [2]: > 10 µM
Kd [3]: > 10 µM
Kd [4]: > 10 µM
Kd [5]: > 10 µM
Kd (Ephrin type-B receptor 1): > 10 µM
Kd [6]: > 10 µM
Kd [13]: > 10 µM
Kd [7]: > 10 µM
Kd [14]: > 10 µM
Kd [15]: > 10 µM
Kd [8]: > 10 µM
Kd [9]: > 10 µM
Kd [10]: > 10 µM
Kd [11]: > 10 µM

Nc1nc(Nc2ccc(S(N)(=O)=O)cc2)nn1C(=O)c1c(F)cccc1F [JNJ-7706621]
Kd [2]: > 10 µM
Kd (Ephrin type-B receptor 1): > 10 µM
Kd [6]: > 10 µM
Kd [14]: > 10 µM
Kd [15]: > 10 µM

Oc1ccc(-c2nc(-c3ccncc3)c(-c3ccc(F)cc3)[nH]2)cc1 [SB-202190]
Kd [1]: > 10 µM
Kd [2]: 4.9 µM
Kd [3]: > 10 µM
Kd [4]: > 10 µM
Kd [5]: > 10 µM
Kd (Ephrin type-B receptor 1): > 10 µM
Kd [6]: > 10 µM
Kd [13]: > 10 µM
Kd [7]: > 10 µM
Kd [14]: > 10 µM
Kd [15]: > 10 µM
Kd [8]: > 10 µM
Kd [9]: > 10 µM
Kd [10]: > 10 µM
Kd [11]: > 10 µM
Kd [12]: > 10 µM
